Experimental data taken from article doi:10.1101/2021.05.28.446239v2 (biorxiv, 2021).

Legend:
[1] = tested on: truncated lungfish MR (MR-CDE); assay: luciferase reporter transactivation; type: cell-based, Protopterus dolloi; conditions: agonist; HEK293, TAT3-luc promoter
full-length lungfish MR = assay: luciferase reporter transactivation; type: cell-based, Protopterus dolloi; conditions: agonist; HEK293, TAT3-luc promoter

Row | SMILES | EC50 [1] [pM] | EC50 (full-length lungfish MR) [pM]
1 | C[C@]12CCC(=O)C=C1CC[C@@H]1[C@@H]2[C@@H](O)C[C@]2(C=O)[C@@H](C(=O)CO)CC[C@@H]12 [aldosterone] | 240 | 40
2 | C[C@]12CCC(=O)C=C1CC[C@@H]1[C@@H]2[C@@H](O)C[C@@]2(C)[C@H]1CC[C@]2(O)C(=O)CO [cortisol] | 86700 | 66100
3 | C[C@]12CC[C@H]3[C@@H](CCC4=CC(=O)CC[C@@]43C)[C@@H]1CC[C@@H]2C(=O)CO [11-deoxycorticosterone] | 130 | 40
4 | CC(=O)[C@H]1CC[C@H]2[C@@H]3CCC4=CC(=O)CC[C@]4(C)[C@H]3CC[C@]12C [progesterone] | 44 | 30
5 | C[C@]12C=CC(=O)C=C1CC[C@H]1[C@@H]3C[C@@H](O)[C@](O)(C(=O)CO)[C@@]3(C)C[C@H](O)[C@@]12F [triamcinolone] | 2400 | 1300
6 | C[C@]12CCC(=O)C=C1CC[C@@H]1[C@@H]2CC[C@@]2(C)[C@H]1CC[C@]2(O)C(=O)CO [11-deoxycortisol] | 270 | 170
7 | C[C@@H]1C[C@H]2[C@@H]3CCC4=CC(=O)C=C[C@]4(C)[C@@]3(F)[C@@H](O)C[C@]2(C)[C@@]1(O)C(=O)CO [dexamethasone] | 7700 | 4700
8 | C[C@]12C[C@H](O)[C@H]3[C@@H](CCC4=CC(=O)CC[C@@]43C)[C@@H]1CC[C@@H]2C(=O)CO [corticosterone] | 85500 | 23100
